Results on seven compounds are retold here after ChEMBL document CHEMBL3091407, “Synthesis of Novel 3,5-Disubstituted-2-oxindole Derivatives As Antitumor Agents against Human Nonsmall Cell Lung Cancer” (ACS Med Chem Lett, 2013).

SMILES strings stand for the structures. pIC50: −log10 of the molar value. The source made the active and inactive calls. The rule behind the calls is not given here.

The subject of test [1] is A549. The test is described as follows: Cell cycle arrest in human A549 cells assessed as decrease in G2 cells at IC50 after 24 hrs followed by compound washout by propidium iodide staining-based FACS analysis. It counts as functional. On the set-up: scale not given: the % may be the effect or the level left. (In general: Flow cytometry measures light scatter and fluorescence of single cells or particles in a stream.)

In test [2] the test system is MDA-MB-231. The test is described as follows: Cytotoxicity against human MDA-MB-231 cells at 1 to 10 uM after 72 hrs by haemocytometry. Type of test: functional, cell-based.
The test system of test [3] is A549. The test can be described thus: Induction of apoptosis in human A549 cells assessed as nuclear fragmentation at IC50 by fluorescence microscopy. Type of test: functional, cell-based.
For test [4], the system named is A549. The test is described as follows: Inhibition of Akt phosphorylation at Thr308 site in human A549 cells at 10 uM after 3 hrs followed by 10 mins incubation in 10% FBS by Western blotting analysis. It counts as cell-based. Background: In western blotting, separated proteins are transferred to a membrane and probed.
The target in test [5] is Epidermal growth factor receptor (Homo sapiens) (UniProt P00533). The test is described as follows: Inhibition of EGFR phosphorylation at […] in human A549 cells at 10 uM after 3 hrs followed by 10 mins incubation in 10% FBS by Western blotting analysis. It counts as cell-based.
Test [6] has as its system A549. The test can be described thus: Inhibition of Akt phosphorylation in human A549 cells assessed as inhibition of FoxO3a phosphorylation at Thr32 at 10 uM after 3 hrs followed by 10 mins incubation in 10% FBS by Western blotting analysis. It counts as cell-based.
Test [7] relates to A549. The test can be described thus: Inhibition of Akt phosphorylation at Ser473 site in human A549 cells at IC50 after 72 hrs by ELISA. Type of test: cell-based. On the technique in general: ELISA stands for enzyme-linked immunosorbent assay.
Test [8] concerns A549. The test can be described thus: Ratio of perifosine IC50 to compound IC50 for human A549 cells. It counts as functional.
Test [9] has as its system A549. The test can be described thus: Induction of apoptosis in human A549 cells assessed as cellular rupture into debris at IC50 by fluorescence microscopy. Type of test: functional, cell-based.
For test [10], the system named is A549. The test can be described thus: Cell cycle arrest in human A549 cells assessed as decrease in G1 cells at IC50 after 24 hrs followed by compound washout by propidium iodide staining-based FACS analysis. On the set-up: scale not given: the % may be the effect or the level left. It counts as functional.
In test [11] the test system is A549. The test can be described thus: Inhibition of Akt phosphorylation at Thr308 site in human A549 cells at IC50 after 72 hrs by ELISA. Type of test: cell-based.
Test [12] relates to A549. The test can be described thus: Cell cycle arrest in human A549 cells assessed as decrease in S cells at IC50 after 24 hrs followed by compound washout by propidium iodide staining-based FACS analysis. Type of test: functional. On the set-up: scale not given: the % may be the effect or the level left.
Test [13] concerns A549. The test can be described thus: Cytotoxicity against human A549 cells after 24 to 72 hrs by haemocytometry. It counts as functional, cell-based.
Test [14] concerns A549. The test can be described thus: Cytotoxicity against human A549 cells at 0.01 to 100 uM by haemocytometry. It counts as functional, cell-based. The settings on record: TDE = time-dependent effect.
Test [15] relates to A549. The test is described as follows: Inhibition of Akt phosphorylation in human A549 cells assessed as inhibition of FoxO1 phosphorylation at Thr24 at 10 uM after 3 hrs followed by 10 mins incubation in 10% FBS by Western blotting analysis. Type of test: cell-based.
For test [16], the target named is Receptor tyrosine-protein kinase erbB-2 (Homo sapiens) (UniProt P04626). The test can be described thus: Inhibition of Her2 phosphorylation at Tyr1221/1222 in human A549 cells at 10 uM after 3 hrs followed by 10 mins incubation in 10% FBS by Western blotting analysis. It counts as cell-based.
Test [17] deals with A549. The test can be described thus: Induction of apoptosis in human A549 cells assessed as cell shrinkage at IC50 by fluorescence microscopy. It counts as functional, cell-based.
Test [18] concerns A549. The test is described as follows: Ratio of sunitinib IC50 to compound IC50 for human A549 cells. Type of test: functional.
Test [19] deals with A549. The test can be described thus: Induction of apoptosis in human A549 cells assessed as apoptotic index at IC50 by fluorescence microscopy relative to control. It counts as functional.
A short description of test [20]: Cytotoxicity against human HCC827 cells after 24 to 72 hrs by haemocytometry. Type of test: functional, cell-based.
Test [21] relates to MDA-MB-231. The test can be described thus: Selectivity for human HCC827 cells over human MDA-MB-231 cells. It counts as functional.

Sequence of Epidermal growth factor receptor (Homo sapiens) (P00533 whole entry): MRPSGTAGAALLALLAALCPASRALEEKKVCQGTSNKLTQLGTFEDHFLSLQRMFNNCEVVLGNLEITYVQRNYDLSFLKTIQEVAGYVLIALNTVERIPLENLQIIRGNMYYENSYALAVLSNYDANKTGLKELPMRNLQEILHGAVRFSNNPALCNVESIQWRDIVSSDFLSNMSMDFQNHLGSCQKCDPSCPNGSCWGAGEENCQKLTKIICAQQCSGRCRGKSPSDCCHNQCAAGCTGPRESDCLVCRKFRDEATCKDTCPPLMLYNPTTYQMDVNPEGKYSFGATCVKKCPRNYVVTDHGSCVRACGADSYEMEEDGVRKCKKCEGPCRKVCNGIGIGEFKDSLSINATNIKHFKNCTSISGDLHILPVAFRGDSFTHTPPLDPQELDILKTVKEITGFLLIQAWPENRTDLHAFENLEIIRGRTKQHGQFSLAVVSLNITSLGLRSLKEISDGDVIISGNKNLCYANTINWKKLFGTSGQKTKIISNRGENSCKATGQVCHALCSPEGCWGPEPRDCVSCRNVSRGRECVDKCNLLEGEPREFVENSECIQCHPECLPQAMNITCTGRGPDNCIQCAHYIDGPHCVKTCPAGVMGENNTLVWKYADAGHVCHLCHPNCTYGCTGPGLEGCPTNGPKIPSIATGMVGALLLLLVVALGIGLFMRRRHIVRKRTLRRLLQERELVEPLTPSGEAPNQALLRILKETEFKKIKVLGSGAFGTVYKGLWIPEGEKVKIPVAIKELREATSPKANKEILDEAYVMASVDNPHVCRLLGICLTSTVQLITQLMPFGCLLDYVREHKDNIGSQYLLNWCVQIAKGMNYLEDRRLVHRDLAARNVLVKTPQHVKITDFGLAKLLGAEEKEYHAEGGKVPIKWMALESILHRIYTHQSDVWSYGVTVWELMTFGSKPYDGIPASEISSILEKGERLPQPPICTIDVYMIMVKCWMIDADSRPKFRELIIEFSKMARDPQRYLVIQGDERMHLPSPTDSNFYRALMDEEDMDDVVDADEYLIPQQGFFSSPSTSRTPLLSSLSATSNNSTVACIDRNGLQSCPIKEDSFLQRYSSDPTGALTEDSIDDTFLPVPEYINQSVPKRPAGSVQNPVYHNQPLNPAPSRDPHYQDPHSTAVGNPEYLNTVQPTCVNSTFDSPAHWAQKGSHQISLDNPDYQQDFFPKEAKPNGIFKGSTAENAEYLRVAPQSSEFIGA
Sequence of Receptor tyrosine-protein kinase erbB-2 (Homo sapiens) (P04626 whole entry): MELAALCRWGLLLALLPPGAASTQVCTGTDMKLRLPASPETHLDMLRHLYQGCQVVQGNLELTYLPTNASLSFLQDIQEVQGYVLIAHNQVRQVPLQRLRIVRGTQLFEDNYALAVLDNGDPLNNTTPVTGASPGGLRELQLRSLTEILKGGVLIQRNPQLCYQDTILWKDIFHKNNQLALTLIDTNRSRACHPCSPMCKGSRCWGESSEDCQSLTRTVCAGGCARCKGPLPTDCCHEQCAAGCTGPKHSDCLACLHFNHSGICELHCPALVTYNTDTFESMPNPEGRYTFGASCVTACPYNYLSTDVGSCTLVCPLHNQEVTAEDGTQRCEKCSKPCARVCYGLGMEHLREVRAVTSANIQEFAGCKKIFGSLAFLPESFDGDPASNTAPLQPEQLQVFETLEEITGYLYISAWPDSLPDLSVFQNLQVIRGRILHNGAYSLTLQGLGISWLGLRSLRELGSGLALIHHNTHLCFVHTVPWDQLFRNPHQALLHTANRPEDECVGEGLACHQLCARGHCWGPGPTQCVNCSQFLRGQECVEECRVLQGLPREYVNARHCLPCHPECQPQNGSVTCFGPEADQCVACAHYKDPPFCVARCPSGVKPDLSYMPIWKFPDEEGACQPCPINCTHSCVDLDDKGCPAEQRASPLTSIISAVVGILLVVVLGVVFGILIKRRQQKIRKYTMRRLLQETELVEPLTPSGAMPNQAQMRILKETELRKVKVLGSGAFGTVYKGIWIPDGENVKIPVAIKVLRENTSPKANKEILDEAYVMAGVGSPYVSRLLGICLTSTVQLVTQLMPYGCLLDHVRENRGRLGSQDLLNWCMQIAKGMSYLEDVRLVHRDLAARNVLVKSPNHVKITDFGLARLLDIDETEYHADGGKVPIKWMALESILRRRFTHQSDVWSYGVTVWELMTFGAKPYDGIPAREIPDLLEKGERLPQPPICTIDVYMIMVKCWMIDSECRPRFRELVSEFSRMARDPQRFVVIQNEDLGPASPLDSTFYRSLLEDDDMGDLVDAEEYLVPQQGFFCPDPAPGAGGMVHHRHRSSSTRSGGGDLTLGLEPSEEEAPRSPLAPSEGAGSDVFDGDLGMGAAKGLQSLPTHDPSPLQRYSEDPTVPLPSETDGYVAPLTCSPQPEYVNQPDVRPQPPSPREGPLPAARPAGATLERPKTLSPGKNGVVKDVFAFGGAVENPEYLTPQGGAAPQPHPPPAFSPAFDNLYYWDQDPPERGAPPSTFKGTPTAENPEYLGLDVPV

`COc1cc2c(cc1OC)CN(CC(=O)Nc1ccc3c(c1)/C(=C\c1nccn1C)C(=O)N3)CC2`: the Activity in the test with A549 [1] was -0.48%; in the test on A549 [10], -0.85%; in the test with A549 [12] it was 1.33%; in the test on A549 [13] it was “Dose-dependent effect”; with A549 [14], “tde”. For the same compound, the result in the test on MDA-MB-231 [2] was inactive. In addition, the result in the test with A549 [3], in the test on A549 [9] and with A549 [17] was Active. Besides, the inhibition result in the test on A549 [4], in the test on A549 [6] and in the test with A549 [15] was “Active” throughout. In addition, the inhibition entry in test [5] and in [16] was “inactive” throughout. For the same compound, the inhibition in the test on A549 [7] and with A549 [11] was 20% each time. Moreover, the “Ratio IC50” value is on record as 2 in the test on A549 [8] and 2.5 with A549 [18]. Besides, the negative-log IC50 (pIC50) in the test with A549 [13] was 5.56.

In the case of `COc1cc2c(cc1OC)CN(CC(=O)Nc1ccc3c(c1)CC(=O)N3)CC2`, the Activity is -14.25% in the test on A549 [1]; 19.24% with A549 [10]; -4.99% in the test on A549 [12]; 12% in the test on A549 [19]; “Dose-dependent effect” in the test on A549 [13]; “tde” in the test with A549 [14]. The outcome with A549 [3], with A549 [9] and with A549 [17] was Active. In addition, the inhibition in the test with A549 [7] and with A549 [11] was 20% in each case. The compound further had a negative-log IC50 (pIC50) in the test on A549 [13] of 4.79.

Consider `COc1cc2c(cc1OC)CN(CC(=O)Nc1ccc3c(c1)/C(=C/c1cccs1)C(=O)N3)CC2`, for which the Activity with A549 [1] was -11.2%; in the test with A549 [10], 21.04%; in the test with A549 [12], -10.23%; in the test with A549 [19] it was 24%; in the test with A549 [13] it was “Dose-dependent effect”; in the test on A549 [14], “tde”. Also, the result with MDA-MB-231 [2] was inactive. The result with A549 [3], in the test with A549 [9] and with A549 [17] was Active. In addition, the inhibition result in the test with A549 [4], with A549 [6] and in the test with A549 [15] was “Active” each time. Also, the inhibition result in [5] and in test [16] was “inactive” throughout. Besides, the inhibition with A549 [7] and in the test with A549 [11] was 20% in each case. The results for the “Ratio IC50” value in the test on A549 [8] and in the test with A549 [18] were 2 and 2.5, respectively. Also, the pIC50 with A549 [13] was 6.18; in test [20] it was 7.35.

Take `COc1cc2c(cc1OC)CN(CC(=O)Nc1ccc3c(c1)/C(=C\c1ccccn1)C(=O)N3)CC2`: the Activity in the test on A549 [1] is 1.69%; with A549 [10] it was 1.06%; in the test with A549 [12], -2.75%; with A549 [13], “Dose-dependent effect”; in the test with A549 [14] it was “tde”. Further, the result with A549 [3], in the test with A549 [9] and with A549 [17] was Active. For the same compound, the inhibition in the test with A549 [7] and in the test on A549 [11] was 20% each time. The pIC50 in the test with A549 [13] was 4.70.

As for `COc1cc2ncnc(Nc3ccc(F)c(Cl)c3)c2cc1OCCCN1CCOCC1` [GEFITINIB], the Selectivity ratio with MDA-MB-231 [21] came to 1700.

For `CCCCCCCCCCCCCCCCCCOP(=O)([O-])OC1CC[N+](C)(C)CC1` [PERIFOSINE], the Activity was -14.51% in the test on A549 [1]; 18.56% in the test with A549 [10]; -4.05% with A549 [12]; 32% with A549 [19]; “Dose-dependent effect” in the test with A549 [13]; “tde” in the test on A549 [14]. Moreover, in the test with A549 [13], the pIC50 is 5.38.

On to `COc1cc2c(cc1OC)CN(CC(=O)Nc1ccc3c(c1)/C(=C/c1cnc[nH]1)C(=O)N3)CC2`, for which the Activity in the test with A549 [1] was -0.61%; in the test on A549 [10], -0.1%; in the test with A549 [12], -0.51%; in the test with A549 [13], “Dose-dependent effect”; in the test with A549 [14], “tde”. The result with A549 [3], with A549 [9] and in the test on A549 [17] was Active. The inhibition in the test with A549 [7] and with A549 [11] was 20% each time. In addition, the “Ratio IC50” value with A549 [8] is on record as 2; in the test on A549 [18], 2.5. Besides, the pIC50 in the test with A549 [13] was 5.66.

For orientation: inhibition means the share of the control response that was lost under treatment. The term pIC50 denotes the negative decadic logarithm of the IC50, by convention in mol/L.
